The text below walks through data of US8178668B2, “2-aminopyridine kinase inhibitors” (OSI Pharmaceuticals, LLC, priority 2008, dated 2012).

One assay addresses RON (human) (Homo sapiens, UniProt Q04912). The assay is described as follows: RON kinase AlphaScreen assay (Km of ATP). The format is biochemical. Particulars: ATP at Km; at least duplicate experiments. Summed up: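 AlphaScreen with PT66 donor/acceptor beads, read after 1 h, detected phosphorylation of biotinylated poly(Glu,Tyr) by human RON. Enzyme-started reactions ran 30 min at room temperature with ATP at Km. Buffer was HEPES pH 7.4 with MgCl2, glycerol, vanadate and 1% DMSO.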
On the technique in general: Bead proximity is the source of the signal in Alpha formats.

Another assay has as its target MET (human) (Homo sapiens, UniProt P08581). The assay is described as follows: MET kinase AlphaScreen assay (Km of ATP). The format is biochemical. The conditions noted are these: ATP at Km; at least duplicate experiments. Summed up:
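AlphaScreen detection with PT66 beads (1 h) follows a 60 min room-temperature MET reaction. Substrate is 200 ng/μL biotinylated poly(Glu,Tyr), with ATP set at an enzyme-optimized concentration. Buffer is HEPES pH 7.4 with MgCl2, MnCl2 and 0.334 mM vanadate, compounds at 1% DMSO.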

Sequence of RON (human) (Q04912 25-1400): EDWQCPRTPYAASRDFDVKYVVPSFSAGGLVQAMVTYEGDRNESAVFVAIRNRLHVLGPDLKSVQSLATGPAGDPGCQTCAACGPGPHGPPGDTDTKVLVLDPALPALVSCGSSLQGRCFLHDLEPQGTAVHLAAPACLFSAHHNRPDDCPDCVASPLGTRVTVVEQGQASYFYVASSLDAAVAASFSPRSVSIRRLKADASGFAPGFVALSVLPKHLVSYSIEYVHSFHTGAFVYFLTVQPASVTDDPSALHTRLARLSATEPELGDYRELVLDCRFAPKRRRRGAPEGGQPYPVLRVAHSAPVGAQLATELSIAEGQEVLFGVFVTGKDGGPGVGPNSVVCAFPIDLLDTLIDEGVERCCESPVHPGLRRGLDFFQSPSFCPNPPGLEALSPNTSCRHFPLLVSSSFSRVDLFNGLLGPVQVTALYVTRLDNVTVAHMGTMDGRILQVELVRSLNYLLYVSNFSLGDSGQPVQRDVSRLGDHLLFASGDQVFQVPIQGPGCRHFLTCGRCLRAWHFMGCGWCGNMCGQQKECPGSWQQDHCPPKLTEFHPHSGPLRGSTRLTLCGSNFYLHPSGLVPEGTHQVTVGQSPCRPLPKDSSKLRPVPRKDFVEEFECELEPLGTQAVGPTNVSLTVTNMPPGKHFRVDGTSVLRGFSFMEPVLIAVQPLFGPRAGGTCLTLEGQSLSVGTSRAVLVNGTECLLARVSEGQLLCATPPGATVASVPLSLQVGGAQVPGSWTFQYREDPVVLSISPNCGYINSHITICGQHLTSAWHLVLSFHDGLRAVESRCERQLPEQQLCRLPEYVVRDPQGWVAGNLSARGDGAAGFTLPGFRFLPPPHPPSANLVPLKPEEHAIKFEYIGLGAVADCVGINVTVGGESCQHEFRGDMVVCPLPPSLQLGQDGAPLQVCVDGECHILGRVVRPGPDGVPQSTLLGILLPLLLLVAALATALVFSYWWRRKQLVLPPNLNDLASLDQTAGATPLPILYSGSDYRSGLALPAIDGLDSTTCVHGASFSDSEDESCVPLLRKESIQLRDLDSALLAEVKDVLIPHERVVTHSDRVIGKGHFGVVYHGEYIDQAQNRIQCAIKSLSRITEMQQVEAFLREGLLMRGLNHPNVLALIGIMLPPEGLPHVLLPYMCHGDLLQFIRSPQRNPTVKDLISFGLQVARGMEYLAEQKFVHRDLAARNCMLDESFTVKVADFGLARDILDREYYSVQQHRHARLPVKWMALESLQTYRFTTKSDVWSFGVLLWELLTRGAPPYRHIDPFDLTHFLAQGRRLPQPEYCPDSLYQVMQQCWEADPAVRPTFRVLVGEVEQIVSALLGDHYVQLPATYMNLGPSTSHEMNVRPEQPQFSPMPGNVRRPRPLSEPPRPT
Sequence of MET (human) (P08581 25-1390): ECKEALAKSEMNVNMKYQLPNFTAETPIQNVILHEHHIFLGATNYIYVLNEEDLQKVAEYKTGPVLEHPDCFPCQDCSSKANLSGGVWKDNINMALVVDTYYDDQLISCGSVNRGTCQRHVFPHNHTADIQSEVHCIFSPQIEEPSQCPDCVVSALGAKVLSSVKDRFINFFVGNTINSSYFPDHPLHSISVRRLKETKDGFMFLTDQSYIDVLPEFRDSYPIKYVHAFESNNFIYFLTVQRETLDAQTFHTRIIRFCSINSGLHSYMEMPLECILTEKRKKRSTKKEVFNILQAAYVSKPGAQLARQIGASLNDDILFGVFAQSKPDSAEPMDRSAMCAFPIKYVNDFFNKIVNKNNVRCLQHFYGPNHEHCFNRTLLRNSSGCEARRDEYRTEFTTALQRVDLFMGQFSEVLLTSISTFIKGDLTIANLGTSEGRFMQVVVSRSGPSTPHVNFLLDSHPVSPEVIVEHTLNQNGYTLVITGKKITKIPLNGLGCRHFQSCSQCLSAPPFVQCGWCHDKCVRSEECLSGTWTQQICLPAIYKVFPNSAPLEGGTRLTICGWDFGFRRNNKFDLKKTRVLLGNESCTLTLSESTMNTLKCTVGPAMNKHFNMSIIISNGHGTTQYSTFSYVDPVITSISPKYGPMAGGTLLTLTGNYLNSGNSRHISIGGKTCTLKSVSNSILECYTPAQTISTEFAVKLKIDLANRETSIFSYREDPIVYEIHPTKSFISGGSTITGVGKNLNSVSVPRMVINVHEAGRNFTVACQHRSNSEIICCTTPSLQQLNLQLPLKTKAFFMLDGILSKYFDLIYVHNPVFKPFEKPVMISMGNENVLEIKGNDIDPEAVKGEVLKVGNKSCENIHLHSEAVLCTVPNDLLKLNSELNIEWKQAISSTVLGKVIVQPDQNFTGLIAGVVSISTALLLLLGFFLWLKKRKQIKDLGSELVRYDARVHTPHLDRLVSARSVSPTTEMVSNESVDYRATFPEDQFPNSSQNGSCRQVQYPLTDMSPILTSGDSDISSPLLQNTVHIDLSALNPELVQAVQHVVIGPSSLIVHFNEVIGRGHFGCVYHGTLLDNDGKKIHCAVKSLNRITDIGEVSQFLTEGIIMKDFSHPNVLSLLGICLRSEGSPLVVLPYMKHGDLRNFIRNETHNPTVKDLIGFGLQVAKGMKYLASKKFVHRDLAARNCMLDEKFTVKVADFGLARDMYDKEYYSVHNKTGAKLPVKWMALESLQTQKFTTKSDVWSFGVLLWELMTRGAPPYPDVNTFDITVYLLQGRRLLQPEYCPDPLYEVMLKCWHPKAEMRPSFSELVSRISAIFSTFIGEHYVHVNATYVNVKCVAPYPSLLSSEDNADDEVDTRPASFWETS

In the case of `Nc1ncc(-c2cnn(C3CCNCC3)c2)cc1-c1nc2cccc(Cl)c2s1` [Example 259, 3-(7-Chlorobenzothiazol-2-yl)-5-(1-piperidin-4-yl-1H-pyrazol-4-yl)-pyridin-2-ylamine], the IC50 on RON (human) and against MET (human) was at most 100 nM each time.

Turning to `Nc1ncc(-c2cnn(C3CCNCC3)c2)cc1-c1nc2cccc(C(F)(F)F)c2s1` [Example 260, 5-(1-Piperidin-4-yl-1H-pyrazol-4-yl)-3-(7-trifluoromethylbenzothiazol-2-yl)-pyridin-2-ylamine], the half-maximal inhibitory concentration (IC50) against RON (human) and at MET (human) was 100 to 1000 nM throughout.

As for `Nc1ncc(-c2cnn(C3CCNCC3)c2)cc1-c1nc2cc(C(F)(F)F)ccc2s1` [Example 261, 5-(1-Piperidin-4-yl-1H-pyrazol-4-yl)-3-(5-trifluoromethylbenzothiazol-2-yl)-pyridin-2-ylamine], the IC50 against RON (human) and on MET (human) was 100 to 1000 nM throughout.

For `Nc1ncc(-c2cnn(C3CCNCC3)c2)cc1-c1nc2c(C(F)(F)F)cccc2s1` [Example 262, 5-(1-Piperidin-4-yl-1H-pyrazol-4-yl)-3-(4-trifluoromethylbenzothiazol-2-yl)-pyridin-2-ylamine], the IC50 against RON (human) and on MET (human) was 100 to 1000 nM each time.

On to `Cc1cccc2nc(-c3cc(-c4cnn(C5CCNCC5)c4)cnc3N)sc12` [Example 263, 3-(7-Methylbenzothiazol-2-yl)-5-(1-piperidin-4-yl-1H-pyrazol-4-yl)-pyridin-2-ylamine], for which the IC50 against RON (human) and on MET (human) was at most 100 nM in each case.

For `COc1cccc2nc(-c3cc(-c4cnn(C5CCNCC5)c4)cnc3N)sc12` [Example 264, 3-(7-Methoxybenzothiazol-2-yl)-5-(1-piperidin-4-yl-1H-pyrazol-4-yl)-pyridin-2-ylamine], the values for the IC50 on RON (human) and at MET (human) were 100 to 1000 nM and at most 100 nM, respectively.

As for `Nc1ncc(-c2cnn(C3CCNCC3)c2)cc1-c1nc2c(Br)cccc2s1` [Example 265, 3-(4-Bromobenzothiazol-2-yl)-5-(1-piperidin-4-yl-1H-pyrazol-4-yl)-pyridin-2-ylamine], the figures for the IC50 against RON (human) and at MET (human) were 100 to 1000 nM and at most 100 nM, respectively.

Take `Nc1ncc(-c2cnn(C3CCNCC3)c2)cc1-c1nc2ccc(OC(F)(F)F)cc2s1` [Example 266, 5-(1-Piperidin-4-yl-1H-pyrazol-4-yl)-3-(6-trifluoromethoxybenzothiazol-2-yl)-pyridin-2-ylamine]: the IC50 against RON (human) and at MET (human) was 1000 to 20000 nM throughout.

As for `N#Cc1ccc2sc(-c3cc(-c4cnn(C5CCNCC5)c4)cnc3N)nc2c1` [Example 267, 2-[2-Amino-5-(1-piperidin-4-yl-1H-pyrazol-4-yl)-pyridin-3-yl]-benzothiazole-5-carbonitrile], the concentration for half-maximal inhibition (IC50) against RON (human) and against MET (human) was at most 100 nM in each case.

With `N#Cc1ccc2nc(-c3cc(-c4cnn(C5CCNCC5)c4)cnc3N)sc2c1` [Example 268, 2-[2-Amino-5-(1-piperidin-4-yl-1H-pyrazol-4-yl)-pyridin-3-yl]-benzothiazole-6-carbonitrile], the concentration for half-maximal inhibition (IC50) against RON (human) and on MET (human) was 100 to 1000 nM each time.

Turning to `Nc1ncc(-c2cnn(C3CCNCC3)c2)cc1-c1nc2c(C(F)(F)F)ccc(F)c2s1` [Example 269, 3-(7-Fluoro-4-trifluoromethylbenzothiazol-2-yl)-5-(1-piperidin-4-yl-1H-pyrazol-4-yl)-pyridin-2-ylamine], the IC50 on RON (human) and at MET (human) was 100 to 1000 nM in each case.

`Nc1ncc(-c2cnn(C3CCNCC3)c2)cc1-c1nc2cccc(F)c2s1` [Example 270, 3-(7-Fluorobenzothiazol-2-yl)-5-(1-piperidin-4-yl-1H-pyrazol-4-yl)-pyridin-2-ylamine]: the concentration for half-maximal inhibition (IC50) against RON (human) and on MET (human) was 100 to 1000 nM throughout.

In the case of `COc1ccc2sc(-c3cc(-c4cnn(C5CCNCC5)c4)cnc3N)nc2c1` [Example 271, 3-(5-Methoxybenzothiazol-2-yl)-5-(1-piperidin-4-yl-1H-pyrazol-4-yl)-pyridin-2-ylamine], the 50% inhibitory concentration (IC50) against RON (human) and against MET (human) was 100 to 1000 nM in each case.

In the case of `Cc1ccc2sc(-c3cc(-c4cnn(C5CCNCC5)c4)cnc3N)nc2c1` [Example 272, 3-(5-Methylbenzothiazol-2-yl)-5-(1-piperidin-4-yl-1H-pyrazol-4-yl)-pyridin-2-ylamine], the half-maximal inhibitory concentration (IC50) against RON (human) and at MET (human) was 100 to 1000 nM each time.

For the compound `Nc1ncc(-c2cnn(C3CCNCC3)c2)cc1-c1nc2cccc(Br)c2s1` [Example 273, 3-(7-Bromobenzothiazol-2-yl)-5-(1-piperidin-4-yl-1H-pyrazol-4-yl)-pyridin-2-ylamine], the half-inhibitory concentration (IC50) against RON (human) and against MET (human) was at most 100 nM each time.

As for `Nc1ncc(-c2cnn(C3CCNCC3)c2)cc1-c1nc2c(F)c(F)ccc2s1` [Example 274, 3-(4,5-Difluorobenzothiazol-2-yl)-5-(1-piperidin-4-yl-1H-pyrazol-4-yl)-pyridin-2-ylamine], the half-inhibitory concentration (IC50) – broadly, the midpoint of a concentration-inhibition curve – at RON (human) is 100 to 1000 nM; on MET (human) it was at most 100 nM.

Regarding `N#Cc1cccc2nc(-c3cc(-c4cnn(C5CCNCC5)c4)cnc3N)sc12` [Example 275, 2-[2-Amino-5-(1-piperidin-4-yl-1H-pyrazol-4-yl)-pyridin-3-yl]-benzothiazole-7-carbonitrile], the IC50 against RON (human) and on MET (human) was 100 to 1000 nM in each case.

Consider `Nc1ncc(-c2cnn(C3CCNCC3)c2)cc1-c1nc2cc(Br)ccc2s1` [Example 276, 3-(5-Bromobenzothiazol-2-yl)-5-(1-piperidin-4-yl-1H-pyrazol-4-yl)-pyridin-2-ylamine], for which the IC50 at RON (human) and on MET (human) was 100 to 1000 nM in each case.

On to `COc1cccc2sc(-c3cc(-c4cnn(C5CCNCC5)c4)cnc3N)nc12` [Example 277, 3-(4-Methoxybenzothiazol-2-yl)-5-(1-piperidin-4-yl-1H-pyrazol-4-yl)-pyridin-2-ylamine], for which the IC50 on RON (human) and against MET (human) was 100 to 1000 nM throughout.

Consider `Nc1ncc(-c2cnn(C3CCNCC3)c2)cc1-c1nc2c(Cl)cccc2s1` [Example 278, 3-(4-Chlorobenzothiazol-2-yl)-5-(1-piperidin-4-yl-1H-pyrazol-4-yl)-pyridin-2-ylamine], for which the figures for the IC50 against RON (human) and at MET (human) were 100 to 1000 nM and at most 100 nM, respectively.

Turning to `Nc1ncc(-c2cnn(C3CCNCC3)c2)cc1-c1nc2ccc(C(F)(F)F)cc2s1` [Example 279, 5-(1-Piperidin-4-yl-1H-pyrazol-4-yl)-3-(6-trifluoromethylbenzothiazol-2-yl)-pyridin-2-ylamine], the IC50 against RON (human) and against MET (human) was 100 to 1000 nM each time.

Consider `Cc1ccc(C(F)(F)F)c2nc(-c3cc(-c4cnn(C5CCNCC5)c4)cnc3N)sc12` [Example 280, 3-(7-Methyl-4-trifluoromethylbenzothiazol-2-yl)-5-(1-piperidin-4-yl-1H-pyrazol-4-yl)-pyridin-2-ylamine], for which the 50% inhibitory concentration (IC50) at RON (human) and against MET (human) was 100 to 1000 nM in each case.

With `Nc1ncc(-c2cnn(C3CCNCC3)c2)cc1-c1nc2cc(OC(F)(F)F)ccc2s1` [Example 281, 5-(1-Piperidin-4-yl-1H-pyrazol-4-yl)-3-(5-trifluoromethoxybenzothiazol-2-yl)-pyridin-2-ylamine], the 50% inhibitory concentration (IC50) at RON (human) and against MET (human) was 100 to 1000 nM each time.

In the case of `Nc1ncc(-c2cnn(C3CCNCC3)c2)cc1-c1nc2c(C(F)(F)F)ccc(Cl)c2s1` [Example 282, 3-(7-Chloro-4-trifluoromethylbenzothiazol-2-yl)-5-(1-piperidin-4-yl-1H-pyrazol-4-yl)-pyridin-2-ylamine], the half-maximal inhibitory concentration (IC50) at RON (human) and against MET (human) was 100 to 1000 nM each time.

For `Nc1ncc(-c2cnn(C3CCNCC3)c2)cc1-c1nc2cc(F)ccc2s1` [Example 283, 3-(5-Fluorobenzothiazol-2-yl)-5-(1-piperidin-4-yl-1H-pyrazol-4-yl)-pyridin-2-ylamine], the half-inhibitory concentration (IC50) on RON (human) and against MET (human) was at most 100 nM in each case.

As to `N#Cc1cccc2sc(-c3cc(-c4cnn(C5CCNCC5)c4)cnc3N)nc12` [Example 284, 2-[2-Amino-5-(1-piperidin-4-yl-1H-pyrazol-4-yl)-pyridin-3-yl]-benzothiazole-4-carbonitrile], the IC50 against RON (human) and on MET (human) was 100 to 1000 nM throughout.

As for `Nc1ncc(-c2cnn(C3CCNCC3)c2)cc1-c1nc2c(OC(F)(F)F)cccc2s1` [Example 285, 5-(1-Piperidin-4-yl-1H-pyrazol-4-yl)-3-(4-trifluoromethoxybenzothiazol-2-yl)-pyridin-2-ylamine], the IC50 against RON (human) is 1000 to 20000 nM; at MET (human), 100 to 1000 nM.

As to `Nc1ncc(-c2cnn(C3CCNCC3)c2)cc1-c1nc2c(C(F)(F)F)c(F)ccc2s1` [Example 286, 3-(5-Fluoro-4-trifluoromethylbenzothiazol-2-yl)-5-(1-piperidin-4-yl-1H-pyrazol-4-yl)-pyridin-2-ylamine], the IC50 at RON (human) and against MET (human) was 100 to 1000 nM throughout.

Take `Nc1ncc(-c2cnn(C3CCNCC3)c2)cc1-c1nc2c(Br)cc(OC(F)(F)F)cc2s1` [Example 287, 3-(4-Bromo-6-trifluoromethoxybenzothiazol-2-yl)-5-(1-piperidin-4-yl-1H-pyrazol-4-yl)-pyridin-2-ylamine]: the IC50 against RON (human) was in the range of 100 to 1000 nM; at MET (human) it was 1000 to 20000 nM.

On to `Nc1ncc(-c2cnn(CCC(=O)N3CCCCC3)c2)cc1-c1nc2ccccc2s1` [Example 288, 3-[4-(6-Amino-5-benzothiazol-2-ylpyridin-3-yl)-pyrazol-1-yl]-1-piperidin-1-ylpropan-1-one], for which the half-maximal inhibitory concentration (IC50) was above 20000 nM against RON (human) and 100 to 1000 nM at MET (human).

On to `Nc1ncc(-c2cnn(CCC(=O)N3CCC(O)C3)c2)cc1-c1nc2ccccc2s1` (centres unmarked) [Example 289, 3-[4-(6-Amino-5-benzothiazol-2-ylpyridin-3-yl)-pyrazol-1-yl]-1-(3-hydroxypyrrolidin-1-yl)-propan-1-one], for which the values for the IC50 against RON (human) and against MET (human) were 1000 to 20000 nM and 100 to 1000 nM, respectively.
